Measurements: a compilation of properties of binary mixtures (doi:10.1016/j.molliq.2021.118292)

Test: xn = mol fraction of the nth substance listed
Conditions: 298.15 K, 101 kPa

## CC[n+]1ccn(C)c1.N#C[S-] + CC(C)=O
x2 = 0
  speed of sound: 1851 m/s
x2 = 0.1125
  speed of sound: 1824 m/s
x2 = 0.1889
  speed of sound: 1798 m/s
x2 = 0.3058
  speed of sound: 1758 m/s
x2 = 0.3917
  speed of sound: 1720 m/s
x2 = 0.5127
  speed of sound: 1652 m/s
x2 = 0.6
  speed of sound: 1590 m/s
x2 = 0.6892
  speed of sound: 1513 m/s
x2 = 0.7842
  speed of sound: 1417 m/s
x2 = 0.9008
  speed of sound: 1286 m/s

## CC(C)=O + CC[n+]1ccn(C)c1.N#C[S-]
x1 = 1
  speed of sound: 1166 m/s

## O + CC(=O)[O-].CC[n+]1ccn(C)c1
x1 = 1
  speed of sound: 1495 m/s

## CC(=O)[O-].CCCC[n+]1ccn(C)c1 + CC(C)=O
x2 = 0
  speed of sound: 1650 m/s
x2 = 0.2024
  speed of sound: 1600 m/s
x2 = 0.3155
  speed of sound: 1566 m/s
x2 = 0.49
  speed of sound: 1497 m/s
x2 = 0.5915
  speed of sound: 1445 m/s
x2 = 0.689
  speed of sound: 1384 m/s
x2 = 0.8036
  speed of sound: 1301 m/s
x2 = 0.8357
  speed of sound: 1276 m/s

## CC(C)=O + CC(=O)[O-].CCCC[n+]1ccn(C)c1
x1 = 1
  speed of sound: 1163 m/s

## CC(=O)[O-].CC[n+]1ccn(C)c1 + O
x2 = 0
  speed of sound: 1735 m/s
x2 = 0.1306
  speed of sound: 1754 m/s
x2 = 0.2326
  speed of sound: 1763 m/s
x2 = 0.2865
  speed of sound: 1781 m/s
x2 = 0.3671
  speed of sound: 1795 m/s
x2 = 0.4047
  speed of sound: 1803 m/s
x2 = 0.4896
  speed of sound: 1811 m/s
x2 = 0.5258
  speed of sound: 1838 m/s
x2 = 0.5507
  speed of sound: 1841 m/s
x2 = 0.7151
  speed of sound: 1910 m/s
x2 = 0.7317
  speed of sound: 1922 m/s
x2 = 0.8099
  speed of sound: 1952 m/s
x2 = 0.9053
  speed of sound: 1915 m/s
